# pIC50, pKi: −log10 of the molar value. Structures can show the parent of a compound that is named as a salt. Where two headings read alike, the source gives them in different places.
# Assays:
# HCT-116 cell line = test: Inhibition of cell growth, tetrazolium salt (MTT) assay; format: cell-based; details: for HCT-116 % Inhibition at 0.25 μM: 0.25 μM compound; for pIC50: Homo sapiens, HCT-116, 120 h, MTT, three to five days, read-out: HCT-116 IC50
# Method in brief: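 McCoy's 5A cultures; 4 h pre-incubation; compound dilutions in 0.5% v/v DMSO; 3–5 d, 37° C, 5% CO2; MTT 0.2 mg/mL final, 4 h; formazan dissolved in DMSO, A540; vs 0.5% DMSO vehicle.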
# [1] = molecular target: human CDK4 and genetically truncated (1-264) cyclin D3 (Homo sapiens, UniProt P11802); test: Inhibition of CDK4/Cyclin D Retinoblastoma Kinase Activity; format: biochemical
# Method in brief: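 Human CDK4/truncated cyclin D3 (1-264) complex from baculovirus-infected insect cells, 5 nM, phosphorylating Rb fragment (residues 386-928, His-tagged) with 25 μM [32/33P]ATP in HEPES pH 7.4, MgCl2, 2% DMSO at 30° C. for 20 min (60 min for tight binders). Filter-captured radioactivity by phosphorimager; apparent Ki from competitive or tight-binding fits.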
# CDK2/Cyclin A = CDK2/Cyclin A (Homo sapiens, UniProt P24941); test: Inhibition of CDK2/Cyclin A Retinoblastoma Kinase Activity; format: biochemical; details: for CDK2 % Inhibition At 0.03 μM: Table 2
# Method in brief: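 Baculovirus-expressed CDK2 complexed with proteolyzed cyclin A (10 or 19 nM), Rb fragment substrate, 25 μM [32P/33P]ATP, HEPES pH 7.4, 30 °C for 60 or 75 min under initial-rate conditions. Filter capture and phosphorimager readout; apparent Ki fitted to competitive or tight-binding competitive inhibition.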
# [2] = 0.1 μM compound, HCT-116, Table 3
# [3] = 0.1 μM compound, HCT-116, Table 4
# Sequence of human CDK4 and genetically truncated (1-264) cyclin D3 (P11802 whole entry, the tested form may be a part): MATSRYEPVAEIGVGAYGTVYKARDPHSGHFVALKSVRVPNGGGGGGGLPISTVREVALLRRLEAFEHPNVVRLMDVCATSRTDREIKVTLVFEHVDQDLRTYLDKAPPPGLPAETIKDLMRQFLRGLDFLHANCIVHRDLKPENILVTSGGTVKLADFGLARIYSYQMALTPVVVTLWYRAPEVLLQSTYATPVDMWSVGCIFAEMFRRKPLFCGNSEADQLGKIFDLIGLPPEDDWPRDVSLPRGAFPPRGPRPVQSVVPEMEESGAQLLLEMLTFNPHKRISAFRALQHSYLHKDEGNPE
# Sequence of human CDK4 and genetically truncated (1-264) cyclin D3 (P30281 1-264 partner): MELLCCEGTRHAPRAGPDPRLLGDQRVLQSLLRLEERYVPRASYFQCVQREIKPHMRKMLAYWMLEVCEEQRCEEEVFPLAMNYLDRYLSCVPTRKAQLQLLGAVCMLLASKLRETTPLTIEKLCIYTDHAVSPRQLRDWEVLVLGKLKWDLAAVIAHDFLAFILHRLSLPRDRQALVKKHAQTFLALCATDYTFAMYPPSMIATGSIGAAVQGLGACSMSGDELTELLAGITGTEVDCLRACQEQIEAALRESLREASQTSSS
compound,measurement,setting,value
Cc1ccc(C(=O)N2CCC(Nc3nc(N)c(C(=O)c4c(F)cccc4F)s3)CC2)cc1C [Example R141],HCT-116 % Inhibition at 0.1 μM,"HCT-116 cell line; HCT-116 cells, at 0.1 μM",33%
same,HCT-116 5 Inhibition at 0.25 μM,HCT-116 cell line; HCT-116 cells,77
same,CDK4 % Inhibition at 0.03 μM,[1]; at 0.03 μM,82%
same,CDK2 % Inhibition at 0.03 μM,CDK2/Cyclin A; at 0.03 μM,68%
Nc1nc(NC2CCN(C(=O)Nc3cccc(Cl)c3)CC2)sc1C(=O)c1c(F)cccc1F [Example O14],HCT-116 % Inhibition at 0.25 μM,"HCT-116 cell line; HCT-116, Table 2",23%
same,CDK4 % Inhibition at 0.03 μM,"[1]; 0.03 μM compound, Table 2",9%
same,CDK2 % Inhibition At 0.03 μM,CDK2/Cyclin A; 0.03 μM compound,36%
Nc1nc(NC2CCN(C(=O)c3csc(C4COc5ccccc5O4)n3)CC2)sc1C(=O)c1c(F)cccc1F (centres unmarked) [Example R57],HCT-116 % Inhibition at 0.1 μM,"HCT-116 cell line; HCT-116 cells, at 0.1 μM",0%
same,HCT-116 5 Inhibition at 0.25 μM,HCT-116 cell line; HCT-116 cells,47
same,CDK4 % Inhibition at 0.03 μM,[1]; at 0.03 μM,36%
same,CDK2 % Inhibition at 0.03 μM,CDK2/Cyclin A; at 0.03 μM,23%
Nc1nc(NC2CCN(C(=O)c3ccccc3C(F)(F)F)CC2)sc1C(=O)c1c(F)cccc1F [Example R124],HCT-116 % Inhibition at 0.1 μM,"HCT-116 cell line; HCT-116 cells, at 0.1 μM",0%
same,HCT-116 5 Inhibition at 0.25 μM,HCT-116 cell line; HCT-116 cells,35
same,CDK4 % Inhibition at 0.03 μM,[1]; at 0.03 μM,38%
same,CDK2 % Inhibition at 0.03 μM,CDK2/Cyclin A; at 0.03 μM,18%
Nc1nc(NC2CCN(S(=O)(=O)c3ccc(I)cc3)CC2)sc1C(=O)c1c(F)cccc1F [Example P16],HCT-116 % Inhibition at 0.1 μM,HCT-116 cell line; [2],34%
same,HCT-116 % Inhibition at 0.25 μM,"HCT-116 cell line; HCT-116, Table 3",35%
same,CDK4 % Inhibition at 0.03 μM,"[1]; 0.03 μM compound, Table 3",67%
same,CDK2 % Inhibition at 0.03 μM,"CDK2/Cyclin A; 0.03 μM compound, Table 3",71%
"CN1CCC[C@H](Oc2ccc(S(=O)(=O)N3CCC(Nc4nc(N)c(C(=O)c5c(F)cccc5F)s4)CC3)cn2)C1 [Example H29, (4-Amino-2-{1-[6-(1-methyl-piperidin-3S-yloxy)-pyridine-3-sulfonyl]-piperidin-4-ylamino}-thiazol-5-yl)-(2,6-difluoro-phenyl)-methanone Hydrochloride]",pIC50,HCT-116 cell line; first HCT-116 column (c4),7.44
same,pIC50,HCT-116 cell line; second HCT-116 column (c5),6.52
same,pKi,"[1]; apparent Ki, CDK4/truncated cyclin D3, Rb fragment substrate, 25 μM ATP",8.89
same,pKi,"CDK2/Cyclin A; apparent Ki, CDK2/proteolyzed cyclin A, Rb fragment substrate, 25 μM ATP",9.28
Nc1nc(NC2CCN(C(=O)C3CCCC3)CC2)sc1C(=O)c1c(F)cccc1F [Example Q57],HCT-116 % Inhibition at 0.1 μM,HCT-116 cell line; [3],0%
same,HCT-116 % Inhibition at 0.25 μM,"HCT-116 cell line; HCT-116, Table 4",32%
same,CDK4 % Inhibition at 0.03 μM,"[1]; 0.03 μM compound, Table 4",40%
same,CDK2 % Inhibition at 0.03 μM,"CDK2/Cyclin A; 0.03 μM compound, Table 4",32%
CCCCOc1ccc(S(=O)(=O)N2CCC(Nc3nc(N)c(C(=O)c4c(F)cccc4F)s3)CC2)cc1 [Example P49],HCT-116 % Inhibition at 0.1 μM,HCT-116 cell line; [2],10%
same,HCT-116 % Inhibition at 0.25 μM,"HCT-116 cell line; HCT-116, Table 3",32%
same,CDK4 % Inhibition at 0.03 μM,"[1]; 0.03 μM compound, Table 3",54%
same,CDK2 % Inhibition at 0.03 μM,"CDK2/Cyclin A; 0.03 μM compound, Table 3",36%
Nc1nc(NC2CCN(C(=O)CCC3CCCC3)CC2)sc1C(=O)c1c(F)cccc1F [Example Q58],HCT-116 % Inhibition at 0.1 μM,HCT-116 cell line; [3],0%
same,HCT-116 % Inhibition at 0.25 μM,"HCT-116 cell line; HCT-116, Table 4",25%
same,CDK4 % Inhibition at 0.03 μM,"[1]; 0.03 μM compound, Table 4",53%
same,CDK2 % Inhibition at 0.03 μM,"CDK2/Cyclin A; 0.03 μM compound, Table 4",29%
Nc1nc(NC2CCN(C(=O)c3c(F)cccc3F)CC2)sc1C(=O)c1c(F)cccc1F [Example R105],HCT-116 % Inhibition at 0.1 μM,"HCT-116 cell line; HCT-116 cells, at 0.1 μM",0%
same,HCT-116 5 Inhibition at 0.25 μM,HCT-116 cell line; HCT-116 cells,44
same,CDK4 % Inhibition at 0.03 μM,[1]; at 0.03 μM,9%
same,CDK2 % Inhibition at 0.03 μM,CDK2/Cyclin A; at 0.03 μM,8%
COc1ccc(OC)c(NC(=O)N2CCC(Nc3nc(N)c(C(=O)c4c(F)cccc4F)s3)CC2)c1 [Example O9],HCT-116 % Inhibition at 0.25 μM,"HCT-116 cell line; HCT-116, Table 2",13%
same,CDK4 % Inhibition at 0.03 μM,"[1]; 0.03 μM compound, Table 2",2%
same,CDK2 % Inhibition At 0.03 μM,CDK2/Cyclin A; 0.03 μM compound,35%
Cc1ccc(C)c(C(=O)N2CCC(Nc3nc(N)c(C(=O)c4c(F)cccc4F)s3)CC2)c1 [Example R128],HCT-116 % Inhibition at 0.1 μM,"HCT-116 cell line; HCT-116 cells, at 0.1 μM",0%
same,HCT-116 5 Inhibition at 0.25 μM,HCT-116 cell line; HCT-116 cells,56
same,CDK4 % Inhibition at 0.03 μM,[1]; at 0.03 μM,7%
same,CDK2 % Inhibition at 0.03 μM,CDK2/Cyclin A; at 0.03 μM,14%
Nc1nc(NC2CCN(C(=O)c3ccc(C(F)(F)F)cc3F)CC2)sc1C(=O)c1c(F)cccc1F [Example R35],HCT-116 % Inhibition at 0.1 μM,"HCT-116 cell line; HCT-116 cells, at 0.1 μM",0%
same,HCT-116 5 Inhibition at 0.25 μM,HCT-116 cell line; HCT-116 cells,49
same,CDK4 % Inhibition at 0.03 μM,[1]; at 0.03 μM,21%
same,CDK2 % Inhibition at 0.03 μM,CDK2/Cyclin A; at 0.03 μM,19%

# — patent US20050101595A1, “N-containing cycloalkyl-substituted amino-thiazole derivatives and pharmaceutical compositions for inhibiting cell proliferation and methods for their use” (PFIZER INC., priority 2003, published 2005)
